Experimental data published in ChEMBL document CHEMBL1201862, “PubChem BioAssay data set” (2004).
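How tested: cells in 96-well plates exposed to compound for 48 hours at five concentrations. GI50 = concentration required for 50% inhibition of growth.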 Calls of active or inactive are those of the source. Rule as the data show it: active = GI50 up to about 1.1 µM and inactive = higher.

Columns and labels:
Assay in all cases: NCI-60 cell line screen, 48 h
SN12C = tested on: SN12C
MDA-MB-231 = tested on: MDA-MB-231
NCI-H226 = tested on: NCI-H226
RXF 631 = tested on: RXF 631
OVCAR-4 = tested on: OVCAR-4
UO-31 = tested on: UO-31
HCT-116 = tested on: HCT-116
SR = tested on: SR
MOLT-4 = tested on: MOLT-4
HOP-18 = tested on: HOP-18
IGROV-1 = tested on: IGROV-1
SF-539 = tested on: SF-539
SF-295 = tested on: SF-295
ACHN = tested on: ACHN
M19-MEL = tested on: M19-MEL
LXFL 529 = tested on: LXFL 529
SW-620 = tested on: SW-620
NCI-H23 = tested on: NCI-H23
BT-549 = tested on: BT-549
Hs-578T = tested on: Hs-578T
HCC 2998 = tested on: HCC 2998
HOP-62 = tested on: HOP-62
SNB-75 = tested on: SNB-75
UACC-62 = tested on: UACC-62
HT-29 = tested on: HT-29
SK-OV-3 = tested on: SK-OV-3
NCI-H522 = tested on: NCI-H522
DMS-273 = tested on: DMS-273
SNB-19 = tested on: SNB-19
COLO 205 = tested on: COLO 205
U-251 = tested on: U-251
CAKI-1 = tested on: CAKI-1
DU-145 = tested on: DU-145
NCI-H460 = tested on: NCI-H460
M14 = tested on: M14
K562 = tested on: K562
OVCAR-3 = tested on: OVCAR-3
SK-MEL-28 = tested on: SK-MEL-28
DLD-1 = tested on: DLD-1
A549 = tested on: A549
Malme-3M = tested on: Malme-3M
LOX IMVI = tested on: LOX IMVI
SK-MEL-5 = tested on: SK-MEL-5
786-0 = tested on: 786-0
MDA-MB-435 = tested on: MDA-MB-435
A498 = tested on: A498
SNB-78 = tested on: SNB-78
DMS-114 = tested on: DMS-114
HCT-15 = tested on: HCT-15
RPMI-8226 = tested on: RPMI-8226
SK-MEL-2 = tested on: SK-MEL-2
PC-3 = tested on: PC-3
OVCAR-8 = tested on: OVCAR-8
UACC-257 = tested on: UACC-257
RXF 393 = tested on: RXF 393
SF-268 = tested on: SF-268
HL-60 = tested on: HL-60
MCF7 = tested on: MCF7
KM12 = tested on: KM12
TK-10 = tested on: TK-10
CCRF-CEM = tested on: CCRF-CEM
EKVX = tested on: EKVX
KM-20L2 = tested on: KM-20L2
HOP-92 = tested on: HOP-92
MDA-N = tested on: MDA-N
OVCAR-5 = tested on: OVCAR-5

Q: `CCCCCCCCC/C=C1\CCC(CN2CCOCC2)C1=O` (stereo unspecified) was tested. Which GI50 (SN12C) did it give?
A: 3.78 µM (inactive)

Q: And the GI50 (MDA-MB-231)?
A: 2.96 µM (inactive)

Q: And the GI50 (NCI-H226)?
A: 5.61 µM (inactive)

Q: What about the GI50 (RXF 631) of the same compound?
A: 5.62 µM (inactive)

Q: What about the GI50 (OVCAR-4) of the same compound?
A: 3.72 µM (inactive)

Q: And the GI50 (UO-31)?
A: 4.95 µM (inactive)

Q: And the GI50 (HCT-116)?
A: 1.75 µM (inactive)

Q: What about the GI50 (SR) of the same compound?
A: 2.38 µM (inactive)

Q: And the GI50 (MOLT-4)?
A: 1.57 µM (inactive)

Q: What about the GI50 (HOP-18) of the same compound?
A: 1.54 µM (inactive)

Q: What about the GI50 (IGROV-1) of the same compound?
A: 4.83 µM (inactive)

Q: And the GI50 (SF-539)?
A: 1.86 µM (inactive)

Q: What about the GI50 (SF-295) of the same compound?
A: 7.48 µM (inactive)

Q: And the GI50 (ACHN)?
A: 4.92 µM (inactive)

Q: What about the GI50 (M19-MEL) of the same compound?
A: 3.28 µM (inactive)

Q: What about the GI50 (LXFL 529) of the same compound?
A: 1.6 µM (inactive)

Q: And the GI50 (SW-620)?
A: 2.28 µM (inactive)

Q: And the GI50 (NCI-H23)?
A: 3.9 µM (inactive)

Q: What about the GI50 (BT-549) of the same compound?
A: 2.08 µM (inactive)

Q: What about the GI50 (Hs-578T) of the same compound?
A: 1.94 µM (inactive)

Q: And the GI50 (HCC 2998)?
A: 6.9 µM (inactive)

Q: And the GI50 (HOP-62)?
A: 13.6 µM (inactive)

Q: And the GI50 (SNB-75)?
A: 6.17 µM (inactive)

Q: And the GI50 (UACC-62)?
A: 3.45 µM (inactive)

Q: And the GI50 (HT-29)?
A: 2.88 µM (inactive)

Q: And the GI50 (SK-OV-3)?
A: 17.3 µM (inactive)

Q: And the GI50 (NCI-H522)?
A: 2.64 µM (inactive)

Q: And the GI50 (DMS-273)?
A: 2.32 µM (inactive)

Q: And the GI50 (SNB-19)?
A: 9.04 µM (inactive)

Q: And the GI50 (COLO 205)?
A: 3.73 µM (inactive)

Q: What about the GI50 (U-251) of the same compound?
A: 2.02 µM (inactive)

Q: What about the GI50 (CAKI-1) of the same compound?
A: 4.6 µM (inactive)

Q: And the GI50 (DU-145)?
A: 4.65 µM (inactive)

Q: What about the GI50 (NCI-H460) of the same compound?
A: 7.26 µM (inactive)

Q: And the GI50 (M14)?
A: 3.23 µM (inactive)

Q: And the GI50 (K562)?
A: 2.45 µM (inactive)

Q: What about the GI50 (OVCAR-3) of the same compound?
A: 8.55 µM (inactive)

Q: And the GI50 (SK-MEL-28)?
A: 3.05 µM (inactive)

Q: And the GI50 (DLD-1)?
A: 1.96 µM (inactive)

Q: What about the GI50 (A549) of the same compound?
A: 15 µM (inactive)

Q: What about the GI50 (Malme-3M) of the same compound?
A: 7.08 µM (inactive)

Q: And the GI50 (LOX IMVI)?
A: 0.855 µM (active)

Q: What about the GI50 (SK-MEL-5) of the same compound?
A: 6.65 µM (inactive)

Q: What about the GI50 (786-0) of the same compound?
A: 1.3 µM (inactive)

Q: What about the GI50 (MDA-MB-435) of the same compound?
A: 2.36 µM (inactive)

Q: And the GI50 (A498)?
A: 12 µM (inactive)

Q: What about the GI50 (SNB-78) of the same compound?
A: 4.29 µM (inactive)

Q: And the GI50 (DMS-114)?
A: 2.92 µM (inactive)

Q: And the GI50 (HCT-15)?
A: 2.47 µM

Q: And the GI50 (RPMI-8226)?
A: 0.303 µM (active)

Q: What about the GI50 (SK-MEL-2) of the same compound?
A: 5.51 µM (inactive)

Q: What about the GI50 (PC-3) of the same compound?
A: 1.79 µM (inactive)

Q: What about the GI50 (OVCAR-8) of the same compound?
A: 1.82 µM (inactive)

Q: And the GI50 (UACC-257)?
A: 3.99 µM (inactive)

Q: And the GI50 (RXF 393)?
A: 2.31 µM (inactive)

Q: What about the GI50 (SF-268) of the same compound?
A: 3.94 µM (inactive)

Q: What about the GI50 (HL-60) of the same compound?
A: 1.67 µM (inactive)

Q: And the GI50 (MCF7)?
A: 1.03 µM (active)

Q: What about the GI50 (KM12) of the same compound?
A: 2.17 µM (inactive)

Q: What about the GI50 (TK-10) of the same compound?
A: 2.33 µM (inactive)

Q: What about the GI50 (CCRF-CEM) of the same compound?
A: 1.8 µM (inactive)

Q: What about the GI50 (EKVX) of the same compound?
A: 14.8 µM (inactive)

Q: And the GI50 (KM-20L2)?
A: 7.35 µM (inactive)

Q: And the GI50 (HOP-92)?
A: 3.38 µM (inactive)

Q: What about the GI50 (MDA-N) of the same compound?
A: 2.64 µM (inactive)

Q: And the GI50 (OVCAR-5)?
A: 16.9 µM (inactive)

Q: How did the GI50 (SN12C) turn out when `NNC(=O)CC(=O)Nc1ccccc1F` was run?
A: > 100 µM (inactive)

Q: And the GI50 (NCI-H226)?
A: > 100 µM (inactive)

Q: And the GI50 (RXF 631)?
A: > 100 µM (inactive)

Q: What about the GI50 (OVCAR-4) of the same compound?
A: > 100 µM (inactive)

Q: What about the GI50 (UO-31) of the same compound?
A: > 100 µM (inactive)

Q: And the GI50 (HCT-116)?
A: > 100 µM (inactive)

Q: What about the GI50 (MOLT-4) of the same compound?
A: > 100 µM (inactive)

Q: What about the GI50 (HOP-18) of the same compound?
A: > 100 µM (inactive)

Q: What about the GI50 (IGROV-1) of the same compound?
A: > 100 µM (inactive)

Q: What about the GI50 (SF-539) of the same compound?
A: > 100 µM (inactive)

Q: And the GI50 (SF-295)?
A: > 100 µM (inactive)

Q: And the GI50 (ACHN)?
A: > 100 µM (inactive)

Q: And the GI50 (M19-MEL)?
A: > 100 µM (inactive)

Q: What about the GI50 (LXFL 529) of the same compound?
A: > 100 µM (inactive)

Q: What about the GI50 (SW-620) of the same compound?
A: > 100 µM (inactive)

Q: What about the GI50 (NCI-H23) of the same compound?
A: > 100 µM (inactive)

Q: And the GI50 (HCC 2998)?
A: > 100 µM (inactive)

Q: And the GI50 (HOP-62)?
A: > 100 µM (inactive)

Q: What about the GI50 (SNB-75) of the same compound?
A: > 100 µM (inactive)

Q: And the GI50 (UACC-62)?
A: > 100 µM (inactive)

Q: And the GI50 (HT-29)?
A: > 100 µM (inactive)

Q: What about the GI50 (SK-OV-3) of the same compound?
A: > 100 µM (inactive)

Q: And the GI50 (NCI-H522)?
A: > 100 µM (inactive)

Q: What about the GI50 (DMS-273) of the same compound?
A: > 100 µM (inactive)

Q: What about the GI50 (SNB-19) of the same compound?
A: > 100 µM (inactive)

Q: And the GI50 (COLO 205)?
A: > 100 µM (inactive)

Q: What about the GI50 (U-251) of the same compound?
A: > 100 µM (inactive)

Q: And the GI50 (CAKI-1)?
A: > 100 µM (inactive)

Q: What about the GI50 (NCI-H460) of the same compound?
A: > 100 µM (inactive)

Q: And the GI50 (M14)?
A: > 100 µM (inactive)

Q: And the GI50 (K562)?
A: > 100 µM (inactive)

Q: What about the GI50 (OVCAR-3) of the same compound?
A: > 100 µM (inactive)

Q: And the GI50 (SK-MEL-28)?
A: > 100 µM (inactive)

Q: What about the GI50 (DLD-1) of the same compound?
A: > 100 µM (inactive)

Q: And the GI50 (A549)?
A: > 100 µM (inactive)

Q: And the GI50 (Malme-3M)?
A: > 100 µM (inactive)

Q: What about the GI50 (LOX IMVI) of the same compound?
A: > 100 µM (inactive)

Q: And the GI50 (SK-MEL-5)?
A: > 100 µM (inactive)

Q: What about the GI50 (786-0) of the same compound?
A: > 100 µM (inactive)

Q: And the GI50 (A498)?
A: > 100 µM (inactive)

Q: What about the GI50 (SNB-78) of the same compound?
A: > 100 µM (inactive)

Q: And the GI50 (DMS-114)?
A: > 100 µM (inactive)

Q: And the GI50 (HCT-15)?
A: > 100 µM

Q: And the GI50 (RPMI-8226)?
A: > 100 µM (inactive)

Q: And the GI50 (OVCAR-8)?
A: > 100 µM (inactive)

Q: What about the GI50 (UACC-257) of the same compound?
A: > 100 µM (inactive)

Q: What about the GI50 (RXF 393) of the same compound?
A: > 100 µM (inactive)

Q: And the GI50 (SF-268)?
A: > 100 µM (inactive)

Q: And the GI50 (HL-60)?
A: > 100 µM (inactive)

Q: What about the GI50 (KM12) of the same compound?
A: > 100 µM (inactive)

Q: What about the GI50 (CCRF-CEM) of the same compound?
A: > 100 µM (inactive)

Q: And the GI50 (EKVX)?
A: > 100 µM (inactive)

Q: What about the GI50 (KM-20L2) of the same compound?
A: > 100 µM (inactive)

Q: And the GI50 (HOP-92)?
A: > 100 µM (inactive)

Q: What about the GI50 (OVCAR-5) of the same compound?
A: > 100 µM (inactive)
